Assay results from ChEMBL document CHEMBL3045835, “Comparative study of conventional and microwave-assisted synthesis of some Schiff bases and their potential as antimicrobial agents” (2012).
Values after ≈ are worked out from the molar mass of the structure shown.

How the values were obtained:
Format in all cases: functional
Pseudomonas fluorescens [1] = test: Antibacterial activity against Pseudomonas fluorescens MTCC 2421 at 1500 ug/ml after 18 hr by cup-plate method; details: MTCC 2421, 18 h, read-out: DIZ
Pseudomonas fluorescens [2] = test: Antibacterial activity against Pseudomonas fluorescens MTCC 2421 at 1000 ug/ml after 18 hr by cup-plate method; details: MTCC 2421, 18 h, read-out: DIZ
Bacillus subtilis [3] = test: Antibacterial activity against Bacillus subtilis MTCC 441 at 100 ug/ml after 18 hr by cup plate method; details: MTCC 441, 18 h, read-out: DIZ
Bacillus subtilis [4] = test: Antibacterial activity against Bacillus subtilis MTCC 441 after 24 hr by broth dilution method; details: MTCC 441, 24 h
Bacillus pumilus [5] = test: Antibacterial activity against Bacillus pumilus MTCC 1456 at 200 ug/ml after 18 hr by cup-plate method; details: MTCC 1456, 18 h, read-out: DIZ
Staphylococcus aureus [6] = test: Antibacterial activity against Staphylococcus aureus MTCC 1430 at 100 ug/ml after 18 hr by cup-plate method; details: MTCC 1430, 18 h, read-out: DIZ
Aspergillus niger [7] = test: Antifungal activity against Aspergillus niger MTCC 2546 at 500 ug/ml after 18 hr by cup-plate method; details: MTCC 2546, 18 h, read-out: DIZ
Escherichia coli [8] = test: Antibacterial activity against Escherichia coli MTCC 1573 at 200 ug/ml after 18 hr by cup-plate method; details: MTCC 1573, 18 h, read-out: DIZ
Bacillus pumilus [9] = test: Antibacterial activity against Bacillus pumilus MTCC 1456 after 24 hr by broth dilution method; details: MTCC 1456, 24 h
Bacillus pumilus [10] = test: Antibacterial activity against Bacillus pumilus MTCC 1456 at 500 ug/ml after 18 hr by cup-plate method; details: MTCC 1456, 18 h, read-out: DIZ
Bacillus pumilus [11] = test: Antibacterial activity against Bacillus pumilus MTCC 1456 at 1000 ug/ml after 18 hr by cup-plate method; details: MTCC 1456, 18 h, read-out: DIZ
Penicillium chrysogenum [12] = test: Antifungal activity against Penicillium chrysogenum MTCC 161 at 100 ug/ml after 18 hr by cup-plate method; details: MTCC 161, 18 h, read-out: DIZ
Micrococcus luteus [13] = test: Antibacterial activity against Micrococcus luteus MTCC 1538 after 24 hr by broth dilution method; details: MTCC 1538, 24 h
Bacillus subtilis [14] = test: Antibacterial activity against Bacillus subtilis MTCC 441 at 1500 ug/ml after 18 hr by cup plate method; details: MTCC 441, 18 h, read-out: DIZ
Pseudomonas aeruginosa [15] = test: Antibacterial activity against Pseudomonas aeruginosa MTCC 424 at 100 ug/ml after 18 hr by cup-plate method; details: MTCC 424, 18 h, read-out: DIZ
Aspergillus niger [16] = test: Antifungal activity against Aspergillus niger MTCC 2546 at 1500 ug/ml after 18 hr by cup-plate method; details: MTCC 2546, 18 h, read-out: DIZ
Pseudomonas fluorescens [17] = test: Antibacterial activity against Pseudomonas fluorescens MTCC 2421 at 100 ug/ml after 18 hr by cup-plate method; details: MTCC 2421, 18 h, read-out: DIZ
Staphylococcus aureus [18] = test: Antibacterial activity against Staphylococcus aureus MTCC 1430 at 500 ug/ml after 18 hr by cup-plate method; details: MTCC 1430, 18 h, read-out: DIZ
Aspergillus niger [19] = test: Antifungal activity against Aspergillus niger MTCC 2546 at 200 ug/ml after 18 hr by cup-plate method; details: MTCC 2546, 18 h, read-out: DIZ
Penicillium chrysogenum [20] = test: Antifungal activity against Penicillium chrysogenum MTCC 161 after 24 hr by broth dilution method; details: MTCC 161, 24 h
Bacillus subtilis [21] = test: Antibacterial activity against Bacillus subtilis MTCC 441 at 500 ug/ml after 18 hr by cup plate method; details: MTCC 441, 18 h, read-out: DIZ
Micrococcus luteus [22] = test: Antibacterial activity against Micrococcus luteus MTCC 1538 at 200 ug/ml after 18 hr by cup-plate method; details: MTCC 1538, 18 h, read-out: DIZ
Bacillus pumilus [23] = test: Antibacterial activity against Bacillus pumilus MTCC 1456 at 100 ug/ml after 18 hr by cup-plate method; details: MTCC 1456, 18 h, read-out: DIZ
Escherichia coli [24] = test: Antibacterial activity against Escherichia coli MTCC 1573 at 1000 ug/ml after 18 hr by cup-plate method; details: MTCC 1573, 18 h, read-out: DIZ
Pseudomonas aeruginosa [25] = test: Antibacterial activity against Pseudomonas aeruginosa MTCC 424 at 500 ug/ml after 18 hr by cup-plate method; details: MTCC 424, 18 h, read-out: DIZ
Pseudomonas aeruginosa [26] = test: Antibacterial activity against Pseudomonas aeruginosa MTCC 424 at 200 ug/ml after 18 hr by cup-plate method; details: MTCC 424, 18 h, read-out: DIZ
Bacillus subtilis [27] = test: Antibacterial activity against Bacillus subtilis MTCC 441 at 200 ug/ml after 18 hr by cup plate method; details: MTCC 441, 18 h, read-out: DIZ

With `O=c1c(/C=N/c2ccc(Cl)cc2)coc2ccccc12` the zone of inhibition at 1500 µg/mL (Pseudomonas fluorescens [1]) was 18 mm, the zone of inhibition at 1000 µg/mL (Pseudomonas fluorescens [2]) was 16 mm and the zone of inhibition at 100 µg/mL (Bacillus subtilis [3]) was 13 mm. It also gave an MIC (Bacillus subtilis [4]) of 300 mg/L (≈ 1060 µM), a zone of inhibition at 200 µg/mL (Bacillus pumilus [5]) of 15 mm and a zone of inhibition at 100 µg/mL (Staphylococcus aureus [6]) of 12 mm. It also gave a zone of inhibition at 500 µg/mL (Aspergillus niger [7]) of 19 mm, a zone of inhibition at 200 µg/mL (Escherichia coli [8]) of 16 mm and an MIC (Bacillus pumilus [9]) of 200 mg/L (≈ 705 µM). It also gave a zone of inhibition at 500 µg/mL (Bacillus pumilus [10]) of 17 mm, a zone of inhibition at 1000 µg/mL (Bacillus pumilus [11]) of 18 mm and a zone of inhibition at 100 µg/mL (Penicillium chrysogenum [12]) of 15 mm. It also gave an MIC (Micrococcus luteus [13]) of 200 mg/L (≈ 705 µM), a zone of inhibition at 1500 µg/mL (Bacillus subtilis [14]) of 21 mm and a zone of inhibition at 100 µg/mL (Pseudomonas aeruginosa [15]) of 16 mm. It also gave a zone of inhibition at 1500 µg/mL (Aspergillus niger [16]) of 21 mm, a zone of inhibition at 100 µg/mL (Pseudomonas fluorescens [17]) of 11 mm and a zone of inhibition at 500 µg/mL (Staphylococcus aureus [18]) of 16 mm. For the same molecule, the zone of inhibition at 200 µg/mL (Aspergillus niger [19]) was 18 mm, the MIC (Penicillium chrysogenum [20]) was 200 mg/L (≈ 705 µM) and the zone of inhibition at 500 µg/mL (Bacillus subtilis [21]) was 17 mm. It also gave a zone of inhibition at 200 µg/mL (Micrococcus luteus [22]) of 19 mm, a zone of inhibition at 100 µg/mL (Bacillus pumilus [23]) of 12 mm and a zone of inhibition at 1000 µg/mL (Escherichia coli [24]) of 19 mm. The zone of inhibition at 500 µg/mL (Pseudomonas aeruginosa [25]) was 19 mm, the zone of inhibition at 200 µg/mL (Pseudomonas aeruginosa [26]) was 18 mm and the zone of inhibition at 200 µg/mL (Bacillus subtilis [27]) was 15 mm.
